In paper PMC6193938, “Characterization of a novel AICARFT inhibitor which potently elevates ZMP and has anti-tumor activity in murine models” (Scientific Reports, 2018):
Values belong to the compound of their own block, whether it stands above or below them.

What was measured:
ATIC (AICARFT) = ATIC (AICARFT) (Homo sapiens, UniProt P31939); experiment: Folate dependent enzyme assay, conversion of ZMP to IMP (LC-MS); assay type: biochemical; conditions: read-out: Positive Control, IC50
Protocol: (§1) The human MTHFD2 (accession number: NM_006636.3) and MTHFD2L (accession number: NM_001144978.1) cDNAs were synthesized at GenScript. […] Bacterial BL21 (DE3) (Novagen) was used as an expression host, and protein purification is described in supplemental material.
(§2) Catalytic activity was assayed under the listed reaction conditions using a liquid chromatograph and either fluorescence or mass spectrometric detection as indicated. Reactions were carried out at RT for the reaction times given. The % response was fit to a four-parameter logistic equation using ACTIVITYBASE 4.0 to determine IC50 values.

SHMT1 = SHMT1 (Homo sapiens, UniProt P34896); experiment: Folate dependent enzyme assay, glycine derivatized with Marfey's reagent (HPLC); assay type: biochemical; conditions: read-out: Positive Control, IC50
Protocol: as §1, §2

MTHFD1 = biological target: T1, MTHFD1 (Homo sapiens, UniProt P11586); experiment: Folate dependent enzyme assay, NADPH (NAD(P)H-Glo); assay type: biochemical; conditions: read-out: Positive Control, IC50
T1 construct: made in house; host or cells: E. coli BL21 (DE3)

MTHFD2 = MTHFD2 (Homo sapiens, UniProt P13995); experiment: Folate dependent enzyme assay, NADH (NAD(P)H-Glo); assay type: biochemical; conditions: read-out: Positive Control, IC50
MTHFD2L = MTHFD2L (Homo sapiens, UniProt Q9H903); experiment: Folate dependent enzyme assay, NADH (NAD(P)H-Glo); assay type: biochemical; conditions: read-out: Positive Control, IC50
NCI-H460 (lung) = experiment: MS detection of ZMP in cultured cells; assay type: cell-based, human; conditions: NCI-H460; data not shown
Protocol: Cells lines were acquired from cell banks, see supplemental material, grown using the cell banks recommended culture conditions (Supplemental Table 3). In some experiments noted “low folate” the cells were washed and grown in folate free RPMI-1640 media (Gibco #27016-021) supplemented with 5 ml 1 M Hepes, 5 ml 100 mM Na pyruvate, 2.5 mg/ml glucose and 10% defined FBS (Hyclone #SH30070) per 500 mL media for 5–7 days to deplete intracellular folate levels prior to the start of the experiment. Where noted, cells were maintained in complete “high folate” RPMI-1640 media (ATCC #30-2001) with 10% defined FBS to contrast with the low folate conditions.
ZMP was detected in cultured cells via mass spec analysis. Cells were plated in 96-well plates at 25,000 cells per well in 100 µL with either high or low folate RPMI media and incubated overnight at 37 °C with 5% CO2. Cells were treated with inhibitor compounds for 16 hours, 0.5% DMSO final concentration. Growth media was decanted and cells were lysed for 10 min at room temperature with 50 µL per well of 1x Sure Fire Lysis buffer (Perkin Elmer, SureFire kit component). Aliquots (40 µL) of standard or sample were combined in a deep 96-well plate with 160 µL of internal standard solution containing ^13C5-ZMP (custom synthesis) and ^13C5-AICAr (custom synthesis) at 100 ng/mL in 40 mM ammonium acetate, pH 4. 400 µL of dichloromethane was added to each sample. Samples were sealed, vortexed for 5 minutes, and placed in the refrigerator for at least 30 minutes. The samples were centrifuged at 4 °C for 10 minutes at 16,600 g. 75 µL of the aqueous layer were transferred to a clean 96-well plate and seal prior to analysis.
The LC-MS method utilizes a Shimadzu Prominence 20 A HPLC system connected to an AB Sciex 5500™ or an AB Sciex 6500™ triple quadrupole mass spectrometer. Extracted samples were separated using a Thermo Hypercarb™ Javelin guard column (2.1 × 20 mm, 5 µm) with an injection volume of 15 µL and a flow rate of 1 mL/minute.
ZMP, AICAr and dUMP were detected using positive ion TurboIonSpray® multiple reaction monitoring mode and the data were processed with AB Sciex MultiQuant™. Back-calculated ZMP concentrations were fit to a four-parameter logistic equation using ACTIVITYBASE 4.0 to determine EC50 values relative to the maximum observed metabolite levels.

A9 cells = experiment: MS detection of ZMP and dUMP in cultured cells; assay type: cell-based, murine; conditions: A9; data not shown
Protocol: To mimic human plasma levels, low folate media is traditionally used in which the folate comes only from the defined fetal bovine serum. […] Because LSN3213128 would be dosed in mice on normal diet, cell line screening was performed under standard tissue culture conditions to identify cell lines sensitive to treatment under high folate conditions. In order to compare tissue culture values with tumor levels, an average 4 pL cell volume[36] was used to calculate cellular ZMP concentrations. In MDA-MB-231[…] cells using regular RPMI, the peak intracellular ZMP levels are about 770 μM while in the salvage deficient A9 cells ZMP is 6,500 μM. […] It is not surprising that in vivo in mice on standard chow where folate plasma levels are >10-fold lower than tissue culture that tumor ZMP levels are also lower. […] ZMP was detected in cultured cells via mass spec analysis. Cells were plated in 96-well plates at 25,000 cells per well in 100 μL with either high or low folate RPMI media and incubated overnight at 37 °C with 5% CO2. Cells were treated with inhibitor compounds for 16 hours, 0.5% DMSO final concentration. Growth media was decanted and cells were lysed for 10 min at room temperature with 50 μL per well of 1x Sure Fire Lysis buffer (Perkin Elmer, SureFire kit component). […] Samples were sealed, vortexed for 5 minutes, and placed in the refrigerator for at least 30 minutes. The samples were centrifuged at 4 °C for 10 minutes at 16,600 g. 75 μL of the aqueous layer were transferred to a clean 96-well plate and seal prior to analysis. The LC-MS method utilizes a Shimadzu Prominence 20 A HPLC system connected to an AB Sciex 5500TM or an AB Sciex 6500TM triple quadrupole mass spectrometer. […] […] dUMP were detected using positive ion TurboIonSpray® multiple reaction monitoring mode and the data were processed with AB Sciex MultiQuantTM. Back-calculated ZMP concentrations were fit to a four-parameter logistic equation using ACTIVITYBASE 4.0 to determine EC50 values relative to the maximum observed metabolite levels.

[1] = test system: MDA-MB-231met2 and NCI-H460 tumors; experiment: Tumor volume versus tumor ZMP levels, three parameter logistic fit; assay type: in vivo, mouse; conditions: individual animal data after LSN3213128 treatment, read-out: IC50 of tumor ZMP level for tumor volume
Description: The levels of total AMPKα and P70S6K are also shown. […] The levels of total AMPKα are also shown. […] Full images and the croppings used in this figure are shown in Supplemental Figures S14–S21.
Tumor volume decreases with increasing ZMP; however, in these solid tumors there was no evidence for AMPK activation, either using AMPK phosphorylation at T172 or downstream measures at P70S6K T389. Salvage of purines in vivo may explain the absence of purine changes; therefore, we measured levels of hypoxanthine for mouse plasma to be 0.36 ± 0.02 μM (n = 5) which was lower than that reported by Slowiaczek et al.[23]. We also quantified hypoxanthine in human plasma, finding the levels were 2.07 ± 0.01 μM (n = 5), well within the 0.45–34 μM range reported in the literature[19],[23]–[29].

Chain of ATIC (AICARFT) (P31939 whole entry): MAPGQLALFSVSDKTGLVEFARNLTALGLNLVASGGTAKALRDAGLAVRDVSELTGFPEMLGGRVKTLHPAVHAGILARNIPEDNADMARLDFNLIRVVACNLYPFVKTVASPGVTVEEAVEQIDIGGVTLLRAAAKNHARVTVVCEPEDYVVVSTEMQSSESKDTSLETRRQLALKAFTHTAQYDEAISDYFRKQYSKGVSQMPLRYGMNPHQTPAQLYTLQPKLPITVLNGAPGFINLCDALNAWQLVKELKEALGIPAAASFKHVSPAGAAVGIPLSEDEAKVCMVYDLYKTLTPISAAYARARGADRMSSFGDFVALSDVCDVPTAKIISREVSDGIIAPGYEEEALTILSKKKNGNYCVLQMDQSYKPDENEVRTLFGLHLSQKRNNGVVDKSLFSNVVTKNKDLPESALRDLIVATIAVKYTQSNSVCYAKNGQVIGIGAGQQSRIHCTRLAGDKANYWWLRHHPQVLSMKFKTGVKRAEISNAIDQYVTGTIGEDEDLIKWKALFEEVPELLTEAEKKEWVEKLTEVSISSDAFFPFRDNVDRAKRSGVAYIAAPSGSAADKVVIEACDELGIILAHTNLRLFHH
T1 sequence (P11586 whole entry): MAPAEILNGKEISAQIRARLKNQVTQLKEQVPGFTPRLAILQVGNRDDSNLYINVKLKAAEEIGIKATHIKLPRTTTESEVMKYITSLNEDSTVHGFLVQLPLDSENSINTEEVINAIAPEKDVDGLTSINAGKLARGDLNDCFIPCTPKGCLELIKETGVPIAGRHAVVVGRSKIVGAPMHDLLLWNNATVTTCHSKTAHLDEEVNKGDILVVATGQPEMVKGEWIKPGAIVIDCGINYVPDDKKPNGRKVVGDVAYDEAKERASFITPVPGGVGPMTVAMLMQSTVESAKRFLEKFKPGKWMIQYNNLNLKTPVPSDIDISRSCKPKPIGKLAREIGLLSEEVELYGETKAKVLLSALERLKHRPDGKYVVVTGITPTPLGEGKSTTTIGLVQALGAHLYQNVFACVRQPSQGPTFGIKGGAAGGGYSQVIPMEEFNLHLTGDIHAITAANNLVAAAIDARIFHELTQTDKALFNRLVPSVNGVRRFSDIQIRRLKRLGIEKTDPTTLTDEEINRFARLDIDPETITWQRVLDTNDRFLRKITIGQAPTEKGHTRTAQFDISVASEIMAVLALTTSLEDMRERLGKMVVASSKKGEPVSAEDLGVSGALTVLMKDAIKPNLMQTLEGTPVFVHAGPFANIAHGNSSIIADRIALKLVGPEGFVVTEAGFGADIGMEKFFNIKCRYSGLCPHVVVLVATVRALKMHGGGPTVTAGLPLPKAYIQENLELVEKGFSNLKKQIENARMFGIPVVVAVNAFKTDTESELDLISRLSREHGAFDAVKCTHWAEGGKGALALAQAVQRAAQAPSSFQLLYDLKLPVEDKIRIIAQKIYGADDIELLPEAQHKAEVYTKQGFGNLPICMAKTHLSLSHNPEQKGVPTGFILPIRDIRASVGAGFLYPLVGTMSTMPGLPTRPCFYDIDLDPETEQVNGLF
Chain of MTHFD2L (Q9H903 46-347): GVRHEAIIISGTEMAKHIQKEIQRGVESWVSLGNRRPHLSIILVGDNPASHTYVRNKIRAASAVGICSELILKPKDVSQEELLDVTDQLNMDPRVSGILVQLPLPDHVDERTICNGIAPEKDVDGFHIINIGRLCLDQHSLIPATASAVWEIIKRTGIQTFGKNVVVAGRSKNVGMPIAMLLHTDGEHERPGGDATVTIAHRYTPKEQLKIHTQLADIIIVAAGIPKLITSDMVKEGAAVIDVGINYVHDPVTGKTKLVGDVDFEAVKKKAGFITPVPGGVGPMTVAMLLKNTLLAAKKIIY
Chain of MTHFD2 (P13995 32-350): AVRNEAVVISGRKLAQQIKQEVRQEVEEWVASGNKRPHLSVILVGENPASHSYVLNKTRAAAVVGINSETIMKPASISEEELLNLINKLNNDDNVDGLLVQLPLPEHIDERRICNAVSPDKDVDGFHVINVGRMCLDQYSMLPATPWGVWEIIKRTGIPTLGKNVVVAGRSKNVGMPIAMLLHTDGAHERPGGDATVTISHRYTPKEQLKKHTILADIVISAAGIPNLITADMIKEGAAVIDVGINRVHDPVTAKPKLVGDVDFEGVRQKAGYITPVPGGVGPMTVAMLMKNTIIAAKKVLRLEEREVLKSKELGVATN
Chain of SHMT1 (P34896 whole entry): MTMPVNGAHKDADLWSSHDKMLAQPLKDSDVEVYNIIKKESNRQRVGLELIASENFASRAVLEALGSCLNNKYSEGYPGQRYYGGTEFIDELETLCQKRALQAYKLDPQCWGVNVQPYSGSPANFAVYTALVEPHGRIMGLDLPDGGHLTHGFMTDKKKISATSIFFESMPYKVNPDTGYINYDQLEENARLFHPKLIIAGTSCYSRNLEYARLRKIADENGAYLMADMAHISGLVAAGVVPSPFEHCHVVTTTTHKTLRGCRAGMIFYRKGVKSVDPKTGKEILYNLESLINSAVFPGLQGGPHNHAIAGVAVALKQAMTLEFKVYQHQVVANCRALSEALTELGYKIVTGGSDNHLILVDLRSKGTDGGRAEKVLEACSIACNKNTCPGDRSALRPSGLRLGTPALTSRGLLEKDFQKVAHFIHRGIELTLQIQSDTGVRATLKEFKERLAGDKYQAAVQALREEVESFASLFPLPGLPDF

- IC50 (ATIC (AICARFT)): 9.2 µM
- IC50 (SHMT1): 10.1 µM
- IC50 (MTHFD1): 5.6 µM
- IC50 (MTHFD2): 1.4 µM
- IC50 (MTHFD2L): 8.6 µM
SMILES: Nc1nc2[nH]cc(CCCc3ccc(C(=O)N[C@@H](CCC(=O)O)C(=O)O)cc3)c2c(=O)[nH]1 [N-({4-[3-(2-AMINO-4-HYDROXY-7H-PYRROLO[2,3-D]PYRIMIDIN-5-YL)PROPYL]PHENYL}CARBONYL)-L-GLUTAMIC ACID]

SMILES: Nc1nc2c(c(=O)[nH]1)C[C@@H](CCc1ccc(C(=O)N[C@@H](CCC(=O)O)C(=O)O)cc1)CN2 [lometrexol, reference compound]
- effect on ZMP (NCI-H460 (lung)): inhibits ZMP
- effect on ZMP (A9 cells): inhibits ZMP

- IC50 [1]: 108 ± 78 µM
SMILES: NC(=O)c1ncn([C@@H]2O[C@H](COP(=O)(O)O)[C@@H](O)[C@H]2O)c1N [ZMP, 5-aminoimidazole 4-carboxamide ribonucleotide]
